# Reference: patent publication US6413947B1, “Anilide derivative, production and use thereof” (Takeda Chemical Industries, Ltd., priority 1997, dated 2002)
# Counter-ions that a name gives are not always drawn.
row,Structure (SMILES),melting point
1,"COc1ccc(N2CCN(Cc3ccc(NC(=O)/C=C/c4cccc(-c5ccc(C)cc5)c4)cc3)CC2)cc1 [Compound 62, (E)-N-[4-[1—(4-methoxy-phenyl)-4-piperazinylmethyl]phenyl]-3—(4-methylphenyl)cinnamamide]",207 to 208 °C
2,"Cc1ccc(-c2ccc3c(c2)C=C(C(=O)Nc2ccc(C(O)c4cccc[n+]4[O-])cc2)C(C)O3)cc1 (centres unmarked) [Compound 203, N-[4-[hydroxy(1-oxidopyridin-2-yl)-methyl]phenyl]-6—(4-methylphenyl)-2-methyl-2H-1-benzopyran-3-carboxamide]",230 to 232 °C
3,"CN1CCC(C(=O)Nc2ccc(CN(C)C3CCOCC3)cc2)=Cc2cc(-c3ccc(OC(F)(F)F)cc3)ccc21 [Compound 315, 1-methyl-N-[4-[[N-methyl-N-(tetrahydro-2H-pyran-4-yl)amino]methyl]phenyl]-7-(4-trifluoromethoxyphenyl)-2,3-dihydro-1-benzazepine-4-carboxamide]",182 to 183 °C
4,"CCOCCCN(C)Cc1ccc(NC(=O)C2=Cc3cc(-c4ccc(OCC)cc4)ccc3N(C)CC2)cc1 [Compound 319, N-(4-((N-(3-ethoxypropyl)-N-methylamino)methyl)phenyl)-7-(4-ethoxyphenyl)-1-methyl-2,3-dihydro-1-benzazepine-4-carboxamide]",129 to 131 °C
5,"Cc1ccc(-c2ccc3c(c2)C=C(C(=O)Nc2ccc(-c4cccc[n+]4[O-])cc2)CCO3)cc1 [Compound 160, N-[4—(1-oxidopyridin-2-yl)phenyl]-7—(4-methylphenyl)-2,3-dihydro-1-benzoxepine-4-carboxamide]",254 °C (dec.)
6,"Cc1ccc(-c2ccc3c(c2)C=C(C(=O)Nc2ccc(C[N+]4(C)CCCCC4)cc2)CCO3)cc1 (as salt: iodide) [Compound 96, 1—(N-(7—(4-methylphenyl)-2,3-dihydro-1-benzoxepin-4-carbonyl)-4-aminobenzyl)-1-methylpiperidinium iodide]",227 to 228 °C (dec.)
7,"Cc1ccc(-c2ccc3c(c2)C=C(C(=O)Nc2ccc(-c4cccnc4)cc2)CCO3)cc1 [Compound 164, N-[4—(3-pyridyl)phenyl]-7—(4-methylphenyl)-2,3-dihydro-1-benzoxepine-4-carboxamide]",214 to 216 °C
8,"Cc1ccc(-c2cccc(/C=C/C(=O)Nc3ccc(C(O)c4ccccn4)cc3)c2)cc1 (centres unmarked) [Compound 79, (E)-N-[4-[hydroxy(2-pyridyl)methyl]phenyl]-3—(4-methylphenyl)cinnamamide]",162 to 165 °C
9,"CCc1ccc(-c2ccc3c(c2)C=C(C(=O)Nc2ccc(CN(C)C4CCOCC4)cc2)CCO3)cc1 [Compound 177, N-[4-[N-methyl-N-(tetrahydropyran-4-yl)aminomethyl]phenyl]-7—(4-ethylphenyl)-2,3-dihydro-1-benzoxepine-4-carboxamide]",181 to 182 °C
10,"Cc1ccc(-c2cc3c(s2)CCCC(C(=O)Nc2ccc(CN(C)C4CCOCC4)cc2)=C3)cc1 [Compound 214, N-[4-[N-methyl-N-(tetrahydropyran-4-yl)aminomethyl]-phenyl]-2—(4-methylphenyl)-7,8-dihydro-6H-cyclohepta-[b]thiophene-5-carboxamide]",201 to 203 °C
11,"Cc1ccc(-c2ccc3c(c2)C=C(C(=O)Nc2ccc(CN(C)C4CCOCC4)cc2)CCO3)s1 [Compound 290, N-[4-[N-methyl-N-(tetrahydropyran-4-yl)amino-methyl]phenyl]-7-(5-methyl-2-thienyl)-2,3-dihydro-1-benzoxepine-4-carboxamide]",129 to 130 °C
12,"COc1ccc(-c2ccc3c(c2)C=C(C(=O)Nc2ccc(CN(C)C4CCC5(CC4)OCCO5)cc2)CCS3)cc1 [Compound 283, N-[4-[N-(4,4-ethylenedioxy-cyclohexyl)-N-methylaminomethyl]phenyl]-7-(4-methoxy-phenyl)-2,3-dihydro-1-benzothiepine-4-carboxamide]",198 to 201 °C
13,"Cc1ccc(-c2ccc3c(c2)C=C(C(=O)Nc2ccc(C[S+]([O-])Cc4ccccc4)cc2)CCO3)cc1 (centres unmarked) [Compound 109, N-(4—(benzylsulfinylmethyl)phenyl)-7—(4-methylphenyl)-2,3-dihydro-1-benzoxepine-4-carboxamide]",208 to 209 °C

# Results, then the compound that gave them:
row,melting point,Structure (SMILES)
1,203 to 204 °C,"Cc1ccc(-c2ccc3c(c2)C=C(C(=O)Nc2ccc(CN4CCN(c5ncccn5)CC4)cc2)CC3)cc1 [Compound 42, 7—(4-methylphenyl)-N-[4-[1—(2-pyrimidyl)-4-piperazinylmethyl]-phenyl]-3,4-dihydronaphthalene-2-carboxamide]"
2,202 to 204 °C,"Cc1ccc(-c2ccc3c(c2)C=C(C(=O)Nc2ccc(C[N+]4(C)CCCCC4)cc2)CC3)cc1 (as salt: iodide) [Compound 16, 1-methyl-1-[4-[7—(4-methylphenyl)-3,4-dihydronaphthalene-2-carboxamido]benzyl]piperidinium iodide]"
3,195 to 196 °C (dec.),"Cc1ccc(-c2ccc3c(c2)C=C(C(=O)Nc2ccc(C(=O)C4CCCCN4)cc2)CCO3)cc1 (centres unmarked) [Compound 156, N-(4—(piperidin-2-ylcarbonyl)phenyl)-7—(4-methylphenyl)-2,3-dihydro-1-benzoxepine-4-carboxamide]"
4,250 to 251 °C,"Cc1ccc(-c2ccc3c(c2)C=C(C(=O)Nc2ccc(CS(=O)(=O)C4CCCCC4)cc2)CCO3)cc1 [Compound 107, N-(4—(cyclohexylsulfonylmethyl)phenyl)-7—(4-methylphenyl)-2,3-dihydro-1-benzoxepine-4-carboxamide]"
5,219 to 220 °C,"Cc1ccc(-c2ccc3c(c2)C=C(C(=O)Nc2ccc(CN4CCCCC4)cc2)C3)cc1 [Compound 60, N-[4—(piperidinomethyl)phenyl]-5—(4-methylphenyl)indene-2-carboxamide]"
6,189 to 190 °C,"Cc1ccc(-c2ccc3c(c2)C=C(C(=O)Nc2ccc(Cc4ccccn4)cc2)CCO3)cc1 [Compound 161, N-[4—(2-pyridylmethyl)phenyl]-7—(4-methylphenyl)-2,3-dihydro-1-benzoxepine-4-carboxamide]"
7,191 to 192 °C,"CN(Cc1ccc(NC(=O)C2=Cc3cc(-c4ccc(Cl)cc4)ccc3OCC2)cc1)C1CCOCC1 [Compound 181, N-[4-[N-methyl-N-(tetrahydropyran-4-yl)aminomethyl]-phenyl]-7—(4-chlorophenyl)-2,3-dihydro-1-benzoxepine-4-carboxamide]"
8,152 to 153 °C,"Cc1ccc(-c2ccc3c(c2)C=C(C(=O)Nc2ccc(CN(C(C)C)C(C)C)cc2)CCO3)cc1 [Compound 119, N-(4—((diisopropylamino)methyl)phenyl)-7—(4-methylphenyl)-2,3-dihydro-1-benzoxepine-4-carboxamide]"
9,219 to 220 °C,"CCCP(=O)(CCC)Cc1ccc(NC(=O)C2=Cc3cc(-c4ccc(C)cc4)ccc3OCC2)cc1 [Compound 168, N-(4-dipropylphosphorylmethylphenyl)-7—(4-methylphenyl)-2,3-dihydro-1-benzoxepine-4-carboxamide]"
10,180 to 181 °C,"O=C(Nc1ccc(CN2CCCCC2)cc1)C1=Cc2cc(C3CCCCC3)ccc2CC1 [Compound 1, 7-cyclohexyl-N-[4—(piperidinomethyl)-phenyl]-3,4-dihydronaphthalene-2-carboxamide]"
